# Activity calls are given as the source filed them. The rule behind the calls is not given here.
# Columns and labels:
# HT-29 = experiment: Growth inhibition of human HT-29 cells after 48 hrs by SRB assay; format: functional; details: HT-29, 48 h
# SR = experiment: Cell cycle arrest in human SR cells assessed as accumulation at G0/G1 phase at 0.0153 uM after 24 hrs using propidium iodide staining by flow cytometry; format: functional, cell-based
# CCRF-CEM = experiment: Growth inhibition of human CCRF-CEM cells after 48 hrs by SRB assay; format: functional
# NCI-H522 = experiment: Growth inhibition of human NCI-H522 cells after 48 hrs by SRB assay; format: functional; details: NCI-H522, 48 h
# LOX IMVI = experiment: Growth inhibition of human LOXIMVI cells after 48 hrs by SRB assay; format: functional
# Malme-3M = experiment: Growth inhibition of human MALME-3M cells after 48 hrs by SRB assay; format: functional
# 786-0 = experiment: Growth inhibition of human 786-0 cells after 48 hrs by SRB assay; format: functional; details: 786-0, 48 h
# A498 = experiment: Growth inhibition of human A498 cells after 48 hrs by SRB assay; format: functional; details: A498, 48 h
# SN12C = experiment: Growth inhibition of human SN12C cells after 48 hrs by SRB assay; format: functional
# PC-3 = experiment: Growth inhibition of human PC3 cells after 48 hrs by SRB assay; format: functional; details: PC-3, 48 h
# BT-549 = experiment: Growth inhibition of human BT549 cells after 48 hrs by SRB assay; format: functional; details: BT-549, 48 h
# T47D = experiment: Growth inhibition of human T47D cells after 48 hrs by SRB assay; format: functional
# K562 [1] = experiment: Cell cycle arrest in human K562 cells assessed as accumulation at G0/G1 phase at 15.9 uM after 24 hrs using propidium iodide staining by flow cytometry; format: functional, cell-based
# K562 [2] = experiment: Cell cycle arrest in human K562 cells assessed as decrease in accumulation at S phase at 15.9 uM after 24 hrs using propidium iodide staining by flow cytometry; format: functional, cell-based
# K562 [3] = experiment: Cell cycle arrest in human K562 cells assessed as decrease in accumulation at G2/M phase at 15.9 uM after 24 hrs using propidium iodide staining by flow cytometry; format: functional, cell-based
# K562 [4] = experiment: Decrease in total phosphorylated retinoblastoma protein level in human K562 cells at 34 uM after 24 hrs by flow cytometry; format: functional, cell-based
# SNB-19 = experiment: Growth inhibition of human SNB19 cells after 48 hrs by SRB assay; format: functional; details: SNB-19, 48 h
# SNB-75 = experiment: Growth inhibition of human SNB75 cells after 48 hrs by SRB assay; format: functional; details: SNB-75, 48 h
# SK-MEL-2 = experiment: Growth inhibition of human SK-MEL-2 cells after 48 hrs by SRB assay; format: functional; details: SK-MEL-2, 48 h
# K562 [5] = experiment: Cell cycle arrest in human K562 cells assessed as accumulation at G0/G1 phase at 1.2 uM after 24 hrs using propidium iodide staining by flow cytometry; format: functional, cell-based
# K562 [6] = experiment: Cell cycle arrest in human K562 cells assessed as decrease in accumulation at S phase at 1.2 uM after 24 hrs using propidium iodide staining by flow cytometry; format: functional, cell-based
# K562 [7] = experiment: Cell cycle arrest in human K562 cells assessed as decrease in accumulation at G2/M phase at 1.2 uM after 24 hrs using propidium iodide staining by flow cytometry; format: functional, cell-based
# K562 [8] = experiment: Decrease in total phosphorylated retinoblastoma protein level in human K562 cells at 14 uM after 24 hrs by flow cytometry; format: functional, cell-based
# [9] = read-out: LC50 (the source's name)
SMILES,GI50 (HT-29) [µM],Activity (SR),GI50 (NCI-H522) [µM],GI50 (LOX IMVI) [µM],GI50 (Malme-3M) [µM],GI50 (786-0) [µM],GI50 (A498) [µM],GI50 (SN12C) [µM],GI50 (PC-3) [µM],GI50 (BT-549) [µM],GI50 (T47D) [µM],GI50 (SNB-19) [µM],GI50 (SNB-75) [µM],further results
CCCCOc1ccc(NC(=O)n2nc(N)c3ccccc32)cc1,13.5,Active,27.4,12.2,14.7,21,19,23.1,14.9,14,14.8,42.7,28.6,GI50 (CCRF-CEM): 0.213 µM; LC50 (CCRF-CEM): > 100 µM; TGI (CCRF-CEM): 17.5 µM; Activity (K562 [1]): Active; Activity (K562 [2]): Active; Activity (K562 [3]): Active; Activity (K562 [4]): Active
Nc1nn(C(=O)Nc2ccc(Cc3ccccc3)cc2)c2ccccc12,2.39,Active,2.9,0.477,19.2,3.76,16.7,12.9,13.5,13.5,1.55,22.8,17,TGI (HT-29): 17.6 µM; CC50 (HT-29; [9]): 56.3 µM; TGI (NCI-H522): > 100 µM; CC50 (NCI-H522; [9]): > 100 µM; LC50 (concentration killing 50% of cells) (LOX IMVI): 61.5 µM; TGI (LOX IMVI): 16.1 µM; GI50 (SK-MEL-2): 36.4 µM; TGI (T47D): > 100 µM; CC50 (T47D; [9]): > 100 µM; Activity (K562 [5]): Active; Activity (K562 [6]): Active; Activity (K562 [7]): Active; Activity (K562 [8]): Active

# Source: ChEMBL document CHEMBL1152860, “Synthesis and antiproliferative activity of 3-amino-N-phenyl-1H-indazole-1-carboxamides” (2009)
